Test results: patent US20110105389A1 (priority 2009, published 2011)

Assays:
[1] = test system: rat stomach fundus strips; test: Ex-vivo potency evaluation on the rat stomach fundus (inhibition of ghrelin-induced contractility), Method B10; details: EFS
Outline: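 Male Wistar rat fundus strips in Krebs at 37 °C (5% CO2 in O2), 1.5 g resting tension, were subjected to EFS (0.5 ms pulses, 5 Hz, 70 V, 30 s every 3 min) with isometric tension recording. Responses were expressed as % of mean pre-drug EFS responses; IC50 for inhibiting ghrelin-induced contractility was determined.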

[2] = Plasma protein binding (equilibrium dialysis), Method B5; assay type: in vitro ADME; details: human plasma, 60 min at 37° C., typically 10 μM
Text: B5. Plasma Protein Binding
The pharmacokinetic and pharmacodynamic properties of drugs are largely a function of the reversible binding of drugs to plasma or serum proteins such as albumin and α1-acid glycoprotein. In general, only unbound drug is available for diffusion or transport across cell membranes, and for interaction at the pharmacological target. On the other hand, drugs with low plasma protein binding generally have large volumes of distribution and rapid clearance since only unbound drug is available for glomerular filtration and, in some cases, hepatic clearance. Thus, the extent of plasma protein binding can influence efficacy, distribution and elimination. The ideal range for plasma protein binding is in the range of 87-98% for most drug products.
Protein binding studies were performed using human plasma. Briefly, 96-well microplates were used to incubate various concentrations of the test article for 60 min at 37° C. A concentration of 10 μM was a typical selection to be employed in this study. Bound and unbound fractions are separated by equilibrium dialysis, where the concentration remaining in the unbound fraction is quantified by LC-MS or LC-MS-MS analysis. […].

CYP3A4 = CYP3A4 (Homo sapiens, UniProt P08684); test: biochemical
CYP2D6 = CYP2D6 (Homo sapiens, UniProt P10635); test: biochemical
[3] = molecular target: T1, ghrelin receptor (HEK-GHSR1 stable cells) (Homo sapiens, UniProt Q92847); test: Ghrelin receptor inverse agonist assay (HTRF IP-one), Method B4; assay type: cell-based
T1 construct: expressed in transfected cells
Outline: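 HEK cells stably expressing GHSR1, seeded at 100 000 cells/well overnight, exposed to compound for 30 min at 37° C. Cells then lysed and IP1 accumulation measured by HTRF (d2 plus anti-IP1 cryptate, 1 h at room temp). Wells lacking d2 served as negative control.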

[4] = Pharmacokinetic analysis (intravenous and oral), Method B9; assay type: in vivo
Outline: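 Compound concentration was typically 2 mg/mL for intravenous and 8 mg/mL for oral dosing. PK parameters such as elimination half-life and total plasma clearance were derived.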

[5] = plasma, Table 10b, 2 mg/mL intravenous typically employed

T1 sequence (Q92847 whole entry): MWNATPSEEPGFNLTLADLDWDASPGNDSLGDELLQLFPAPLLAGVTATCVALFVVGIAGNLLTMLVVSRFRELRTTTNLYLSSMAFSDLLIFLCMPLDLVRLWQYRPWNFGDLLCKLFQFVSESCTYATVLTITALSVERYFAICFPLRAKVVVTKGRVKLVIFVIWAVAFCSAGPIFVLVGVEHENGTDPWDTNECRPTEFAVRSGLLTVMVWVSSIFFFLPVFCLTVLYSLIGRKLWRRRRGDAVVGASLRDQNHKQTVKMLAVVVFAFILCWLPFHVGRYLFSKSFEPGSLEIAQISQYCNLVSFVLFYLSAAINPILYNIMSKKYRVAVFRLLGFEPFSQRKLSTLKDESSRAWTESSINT
CYP2D6, sequence (P10635 whole entry): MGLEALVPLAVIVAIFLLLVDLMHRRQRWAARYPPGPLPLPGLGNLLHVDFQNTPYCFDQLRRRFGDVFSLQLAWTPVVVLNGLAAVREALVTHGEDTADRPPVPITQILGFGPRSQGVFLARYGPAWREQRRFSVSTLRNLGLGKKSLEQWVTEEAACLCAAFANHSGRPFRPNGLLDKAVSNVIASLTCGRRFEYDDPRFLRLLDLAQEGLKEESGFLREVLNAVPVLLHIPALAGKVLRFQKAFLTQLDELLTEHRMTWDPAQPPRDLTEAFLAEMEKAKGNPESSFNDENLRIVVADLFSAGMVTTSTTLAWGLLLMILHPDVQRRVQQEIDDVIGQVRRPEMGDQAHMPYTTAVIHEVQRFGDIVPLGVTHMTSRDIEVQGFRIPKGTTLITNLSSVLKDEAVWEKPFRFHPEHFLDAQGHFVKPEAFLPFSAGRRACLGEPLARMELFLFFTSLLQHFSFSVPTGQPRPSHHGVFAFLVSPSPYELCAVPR
CYP3A4, sequence (P08684 whole entry): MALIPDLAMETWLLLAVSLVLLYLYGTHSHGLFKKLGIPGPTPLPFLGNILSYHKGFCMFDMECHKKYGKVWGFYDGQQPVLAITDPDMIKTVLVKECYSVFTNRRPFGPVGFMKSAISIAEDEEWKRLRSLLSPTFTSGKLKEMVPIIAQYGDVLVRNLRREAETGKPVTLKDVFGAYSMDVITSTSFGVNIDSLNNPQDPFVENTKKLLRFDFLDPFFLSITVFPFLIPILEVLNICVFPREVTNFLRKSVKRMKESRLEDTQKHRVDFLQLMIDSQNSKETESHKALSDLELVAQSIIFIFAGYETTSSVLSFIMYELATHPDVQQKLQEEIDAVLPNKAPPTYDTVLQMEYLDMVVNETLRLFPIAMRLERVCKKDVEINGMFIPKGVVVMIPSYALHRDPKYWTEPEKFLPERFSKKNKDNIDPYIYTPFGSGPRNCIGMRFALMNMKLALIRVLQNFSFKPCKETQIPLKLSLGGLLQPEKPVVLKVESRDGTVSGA

CC(C)[C@@H]1NCCOc2ccccc2C[C@H](O)[C@@H](C)NC(=O)[C@@H](Cc2cccc(F)c2)NC(=O)[C@H](C(C)O)N(C)C1=O (stereo partly drawn) [Compound 1503]
IC50 [1]: 0.65 µM
fraction unbound at 60 min, 10 μM [2]: 0.221
IC50 (CYP3A4): 14.3 µM
IC50 (CYP2D6): 55.8 µM
IC50 [3]: 0.01 to 0.05 µM

CC[C@@H]1CCc2ccc(F)cc2OCCN[C@@H](C(C)C)C(=O)N(C)[C@@H](C(C)O)C(=O)N[C@H](Cc2c[nH]c3ccccc23)C(=O)N1 (stereo partly drawn) [Compound 1505]
IC50 [1]: 0.0125 µM
Oral F ([4]; in vivo, po): 18%
half-life ([4]; plasma): 1.07 h
clearance ([4]; plasma, intravenous): 23 mL/min/kg
fraction unbound at 60 min, 10 μM [2]: 0.036
IC50 (CYP3A4): 0.7 µM
IC50 (CYP2D6): 2.1 µM
IC50 [3]: 0.1 to 0.5 µM

CC(C)[C@@H]1NCCOc2ccccc2C#C[C@@H](C)NC(=O)[C@@H](Cc2ccccc2)NC(=O)[C@H](C(C)O)N(C)C1=O (stereo partly drawn) [Compound 1688]
IC50 [1]: 0.0001 µM
fraction unbound at 60 min, 10 μM [2]: 0.091
IC50 (CYP3A4): 8.5 µM
IC50 (CYP2D6): 20.2 µM
IC50 [3]: 0.05 to 0.1 µM

CC(O)[C@H]1C(=O)N[C@H](Cc2ccccc2)C(=O)NCCCc2cccc3c2OC(CC3)CN[C@@H](C2CC2)C(=O)N1C (stereo partly drawn) [Compound 1778]
IC50 [1]: 0.012 µM
clearance [4, 5]: 26 ± 18 mL/min/kg
half-life [4, 5]: 0.983 ± 0.633 h
fraction unbound at 60 min, 10 μM [2]: 0.076
IC50 (CYP3A4): 7.7 µM
IC50 (CYP2D6): 21.1 µM
IC50 [3]: 0.1 to 0.5 µM

CC[C@@H]1NCC2CCc3cccc(c3O2)CCCNC(=O)[C@@H](Cc2ccccc2)NC(=O)[C@H](C(C)O)N(C)C1=O (stereo partly drawn) [Compound 1780]
IC50 [1]: 0.0121 µM
fraction unbound at 60 min, 10 μM [2]: 0.061
IC50 (CYP3A4): 6 µM
IC50 (CYP2D6): 35.7 µM
IC50 [3]: 0.05 to 0.1 µM

CC(O)[C@H]1C(=O)N[C@H](Cc2ccccc2)C(=O)NCC#Cc2c(F)cccc2OCCN[C@@H](C2(C)CC2)C(=O)N1C (stereo partly drawn) [Compound 1876]
IC50 [1]: 0.06 µM
bioavailability ([4]; plasma, Table 10b, 2 mg/mL intravenous and 8 mg/mL oral typically employed): 54 ± 19%
clearance [4, 5]: 28 ± 8 mL/min/kg
half-life [4, 5]: 2.65 ± 0.267 h
fraction unbound at 60 min, 10 μM [2]: 0.05
IC50 (CYP3A4): 8.5 µM
IC50 (CYP2D6): 23.1 µM
IC50 [3]: 0.05 to 0.1 µM

CC(O)[C@H]1C(=O)N[C@H](Cc2ccccc2)C(=O)NCC#Cc2ccccc2OCCN[C@@H](C2(C)CC2)C(=O)N1C (stereo partly drawn) [Compound 1878]
IC50 [1]: 0.03 µM
clearance [4, 5]: 35 ± 1 mL/min/kg
half-life [4, 5]: 2.07 ± 0.317 h
fraction unbound at 60 min, 10 μM [2]: 0.127
IC50 (CYP3A4): 11.6 µM
IC50 (CYP2D6): 45.3 µM
IC50 [3]: 0.01 to 0.05 µM
